# Results reported in ChEMBL document CHEMBL5053549, “Discovery of Potent and Novel Dual PARP/BRD4 Inhibitors for Efficient Treatment of Pancreatic Cancer” (J Med Chem, 2021).
# Active and inactive are the calls of the source. The calls are words filed in the database; no cut-off is given here.
# Legend:
# [1] = molecular target: Poly [ADP-ribose] polymerase 1 (Homo sapiens, UniProt P09874); assay: Inhibition of PARP1 (unknown origin) incubated for 45 mins in presence of biotinylated-NAD+ by microplate reader analysis
# [2] = molecular target: T1, Bromodomain-containing protein 4 (Homo sapiens, UniProt O60885); assay: Inhibition of recombinant BRD4 (unknown origin) at 0.5 uM incubated for 120 mins by TR-FRET assay relative to control
# [3] = molecular target: T1, Bromodomain-containing protein 4; assay: Inhibition of recombinant BRD4 (unknown origin) incubated for 120 mins by TR-FRET assay
# SW1990 [4] = assay: Antiproliferative activity against human SW1990 cells assessed as reduction in cell viability after 4 days by MTT assay; assay type: functional, cell-based; details: SW1990, 96 h
# MDA-MB-231 = assay: Antiproliferative activity against human MDA-MB-231 cells assessed as reduction in cell viability after 7 days; assay type: functional, cell-based; details: MDA-MB-231, 168 h
# Mus musculus [5] = assay: In vivo inhibition of PARP1 expression in human […] cells xenografted in BALB/c mouse at 45 mg/kg, ip administered for 28 consecutive days by immunohistochemical analysis; assay type: functional, organism-based; details: time 28.0 day
# SW1990 [6] = assay: Effect on cell cycle progression in human SW1990 cells assessed as reduction in PLK1 expression at 6 uM after 4 days by Q-PCR analysis; assay type: functional, cell-based; details: time 4.0 day
# SW1990 [7] = assay: Inhibition of homologous recombinant repair in human SW1990 cells assessed as reduction in BRCA1 expression at 6 uM after 4 days by Q-PCR analysis; assay type: functional, cell-based; details: time 4.0 day
# SW1990 [8] = assay: Effect on cell cycle progression in human SW1990 cells assessed as reduction in CDK6 expression at 6 uM after 4 days by Western blot analysis; assay type: functional, cell-based; details: time 4.0 day
# SW1990 [9] = assay: Inhibition of homologous recombinant repair in human SW1990 cells assessed as reduction in Rad51 expression at 6 uM after 4 days by Western blot analysis; assay type: functional, cell-based; details: time 4.0 day
# Mus musculus [10] = assay: Effect on cell cycle progression in human SW1990 cells xenografted in BALB/c mouse assessed as reduction in CCND1 expression at 45 mg/kg, ip after 4 days by Q-PCR analysis; assay type: functional, organism-based; details: time 4.0 day
# Mus musculus [11] = assay: In vivo inhibition of PARP1 expression in human […] cells xenografted in BALB/c mouse at 45 mg/kg, ip administered for 28 consecutive days by Q-PCR analysis; assay type: functional, organism-based; details: time 28.0 day
# Mus musculus [12] = assay: Effect on cell cycle progression in human SW1990 cells xenografted in BALB/c mouse assessed as reduction in CDK6 expression at 45 mg/kg, ip after 4 days by Western blot analysis; assay type: functional, organism-based; details: time 4.0 day
# Mus musculus [13] = assay: Toxicity in BALB/c mouse xenografted with human SW1990 cells assessed as liver damage at 45 mg/kg, ip administered for 28 consecutive days by H and E staining based […] microscopic analysis; assay type: organism-based; details: in vivo, 672 h, time 28 day
# [14] = molecular target: T1, Bromodomain-containing protein 4; assay: Inhibition of BRD4 expression in human SW1990 cells at 6 uM after 4 days by Western blot analysis; assay type: cell-based; details: time 4.0 day
# SW1990 [15] = assay: Effect on cell cycle progression in human SW1990 cells assessed as reduction in CCND1 expression at 6 uM after 4 days by Q-PCR analysis; assay type: functional, cell-based; details: time 4.0 day
# SW1990 [16] = assay: Induction of DNA damage in human SW1990 cells assessed as increase in gammaH2AX at 6 uM incubated for 4 days by immunofluorescence assay; assay type: functional, cell-based; details: time 4.0 day
# SW1990 [17] = assay: Effect on cell cycle progression in human SW1990 cells assessed as reduction in CCND1 expression at 6 uM after 4 days by Western blot analysis; assay type: functional, cell-based; details: time 4.0 day
# SW1990 [18] = assay: Effect on cell cycle progression in human SW1990 cells assessed as reduction in PLK1 expression at 6 uM after 4 days by Western blot analysis; assay type: functional, cell-based; details: time 4.0 day
# Mus musculus [19] = assay: Toxicity in BALB/c mouse xenografted with human SW1990 cells assessed as lung damage at 45 mg/kg, ip administered for 28 consecutive days by H and E staining based […] microscopic analysis; assay type: organism-based; details: in vivo, 672 h, time 28 day
# SW1990 [20] = assay: Inhibition of homologous recombinant repair in human SW1990 cells assessed as reduction in Rad51 expression at 6 uM after 4 days by Q-PCR analysis; assay type: functional, cell-based; details: time 4.0 day
# Mus musculus [21] = assay: In vivo inhibition of BRD4 expression in human […] cells xenografted in BALB/c mouse at 45 mg/kg, ip administered for 28 consecutive days by Q-PCR analysis; assay type: functional, organism-based; details: time 28.0 day
# SW1990 [22] = assay: Induction of autophagy in human SW1990 cells assessed as reduction in p62 expression at 6 uM incubated for 4 days by immunofluorescence assay; assay type: functional, cell-based; details: time 4.0 day
# [23] = molecular target: T1, Bromodomain-containing protein 4; assay: Inhibition of BRD4 expression in human SW1990 cells at 6 uM after 4 days by Q-PCR analysis; assay type: cell-based; details: time 4.0 day
# Mus musculus [24] = assay: Effect on cell cycle progression in human SW1990 cells xenografted in BALB/c mouse assessed as reduction in PLK1 expression at 45 mg/kg, ip after 4 days by Western blot analysis; assay type: functional, organism-based; details: time 4.0 day
# CFPAC-1 = assay: Antiproliferative activity against human CFPAC-1 cells assessed as reduction in cell viability after 4 days by MTT assay; assay type: functional, cell-based; details: CFPAC-1, 96 h
# Mus musculus [25] = assay: Effect on cell cycle progression in human SW1990 cells xenografted in BALB/c mouse assessed as reduction in CCND1 expression at 45 mg/kg, ip after 4 days by Western blot analysis; assay type: functional, organism-based; details: time 4.0 day
# Mus musculus [26] = assay: Effect on cell cycle progression in human SW1990 cells xenografted in BALB/c mouse assessed as reduction in PLK1 expression at 45 mg/kg, ip after 4 days by Q-PCR analysis; assay type: functional, organism-based; details: time 4.0 day
# Mus musculus [27] = assay: In vivo inhibition of BRD4 expression in human […] cells xenografted in BALB/c mouse at 45 mg/kg, ip administered for 28 consecutive days by immunohistochemical analysis; assay type: functional, organism-based; details: time 28.0 day
# CAPAN-1 = assay: Antiproliferative activity against human CAPAN-1 cells assessed as reduction in cell viability after 4 days by MTT assay; assay type: functional, cell-based; details: CAPAN-1, 96 h
# SW1990 [28] = assay: Induction of DNA damage in human SW1990 cells assessed as tail DNA at 6 uM incubated for 4 days by comet assay; assay type: functional, cell-based; details: time 4.0 day
# Mus musculus [29] = assay: Toxicity in BALB/c mouse xenografted with human SW1990 cells assessed as spleen damage at 45 mg/kg, ip administered for 28 consecutive days by H and E staining based […] microscopic analysis; assay type: organism-based; details: in vivo, 672 h, time 28 day
# SW1990 [30] = assay: Effect on cell cycle progression in human SW1990 cells assessed as reduction in CDK6 expression at 6 uM after 4 days by Q-PCR analysis; assay type: functional, cell-based; details: time 4.0 day
# SW1990 [31] = assay: Inhibition of homologous recombinant repair in human SW1990 cells assessed as reduction in FOXM1 expression at 6 uM after 4 days by Q-PCR analysis; assay type: functional, cell-based; details: time 4.0 day
# Mus musculus [32] = assay: Toxicity in BALB/c mouse xenografted with human SW1990 cells assessed as heart damage at 45 mg/kg, ip administered for 28 consecutive days by H and E staining based […] microscopic analysis; assay type: organism-based; details: in vivo, 672 h, time 28 day
# Mus musculus [33] = assay: In vivo inhibition of BRD4 expression in human […] cells xenografted in BALB/c mouse at 45 mg/kg, ip administered for 28 consecutive days by Western blot analysis; assay type: functional, organism-based; details: time 28.0 day
# Mus musculus [34] = assay: Effect on cell cycle progression in human SW1990 cells xenografted in BALB/c mouse assessed as reduction in CDK6 expression at 45 mg/kg, ip after 4 days by Q-PCR analysis; assay type: functional, organism-based; details: time 4.0 day
# Mus musculus [35] = assay: In vivo inhibition of PARP1 expression in human […] cells xenografted in BALB/c mouse at 45 mg/kg, ip administered for 28 consecutive days by Western blot analysis; assay type: functional, organism-based; details: time 28.0 day
# SW1990 [36] = assay: Induction of autophagy in human SW1990 cells assessed as increase in LC3B expression at 6 uM incubated for 4 days by immunofluorescence assay; assay type: functional, cell-based; details: time 4.0 day
# Mus musculus [37] = assay: Toxicity in BALB/c mouse xenografted with human SW1990 cells assessed as effect on body weight at 45 mg/kg, ip administered for 28 consecutive days; assay type: organism-based; details: in vivo, 672 h, time 28 day
# Mus musculus [38] = assay: Toxicity in BALB/c mouse xenografted with human SW1990 cells assessed as kidney damage at 45 mg/kg, ip administered for 28 consecutive days by H and E staining based […] microscopic analysis; assay type: organism-based; details: in vivo, 672 h, time 28 day
# SW1990 [39] = assay: Inhibition of homologous recombinant repair in human SW1990 cells assessed as reduction in BRCA1 expression at 6 uM after 4 days by Western blot analysis; assay type: functional, cell-based; details: time 4.0 day
# Poly [ADP-ribose] polymerase 1, sequence (P09874 whole entry): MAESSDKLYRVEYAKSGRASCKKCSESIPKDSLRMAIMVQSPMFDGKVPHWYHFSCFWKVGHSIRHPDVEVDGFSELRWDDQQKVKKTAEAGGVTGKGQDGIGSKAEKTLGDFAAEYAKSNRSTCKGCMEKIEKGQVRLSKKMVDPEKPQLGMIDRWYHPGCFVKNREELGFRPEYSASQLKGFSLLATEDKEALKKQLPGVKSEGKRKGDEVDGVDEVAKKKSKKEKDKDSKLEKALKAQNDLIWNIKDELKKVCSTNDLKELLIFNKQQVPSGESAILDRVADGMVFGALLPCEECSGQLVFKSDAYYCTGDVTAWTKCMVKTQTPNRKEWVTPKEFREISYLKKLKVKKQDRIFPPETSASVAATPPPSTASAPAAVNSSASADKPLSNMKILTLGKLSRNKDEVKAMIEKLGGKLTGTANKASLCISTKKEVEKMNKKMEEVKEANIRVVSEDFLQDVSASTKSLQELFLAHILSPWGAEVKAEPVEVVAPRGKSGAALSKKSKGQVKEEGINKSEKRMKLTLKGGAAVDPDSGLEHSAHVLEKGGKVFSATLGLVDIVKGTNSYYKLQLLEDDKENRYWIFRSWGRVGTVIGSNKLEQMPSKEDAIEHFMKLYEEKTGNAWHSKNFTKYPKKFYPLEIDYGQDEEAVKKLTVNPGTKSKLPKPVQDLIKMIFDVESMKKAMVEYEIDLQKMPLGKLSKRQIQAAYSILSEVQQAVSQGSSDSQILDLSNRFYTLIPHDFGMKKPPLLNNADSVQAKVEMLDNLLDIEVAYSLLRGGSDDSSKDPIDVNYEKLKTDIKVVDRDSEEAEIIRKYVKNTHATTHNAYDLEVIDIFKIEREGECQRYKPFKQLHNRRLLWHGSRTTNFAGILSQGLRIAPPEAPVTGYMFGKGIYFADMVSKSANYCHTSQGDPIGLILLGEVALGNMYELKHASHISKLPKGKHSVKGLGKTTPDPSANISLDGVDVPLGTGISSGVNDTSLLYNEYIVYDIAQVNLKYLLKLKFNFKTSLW
smiles,measurement,setting,value
CC[C@@H]1C(=O)N(C)c2cnc(Nc3ccc(C(C)c4nc5c(C(N)=O)cccc5[nH]4)cc3OC)nc2N1C1CCCC1 (some centres not stated),IC50,[1],236 nM
same,inhibition,[2],74%
CC[C@@H]1C(=O)N(C)c2cnc(Nc3ccc(-c4nc5c(C(N)=O)cccc5[nH]4)cc3OC)nc2N1Cc1ccccc1,IC50,[1],461 nM
same,inhibition,[2],21%
CC[C@@H]1C(=O)N(C)c2cnc(Nc3ccc(CC(=O)NCc4nc5c(C(N)=O)cccc5[nH]4)cc3OC)nc2N1C1CCCC1,IC50,[3],276 nM
same,IC50,[1],498 nM
CC[C@@H]1C(=O)N(C)c2cnc(Nc3ccc(-c4nc5c(C(N)=O)cccc5[nH]4)cc3OC3CCCC3)nc2N1C1CCCC1,IC50,[1],1820 nM
same,inhibition,[2],47%
CC[C@@H]1C(=O)N(C)c2cnc(Nc3ccc(Cc4nc5c(C(N)=O)cccc5[nH]4)cc3OC)nc2N1C1CCCC1,IC50,[3],186 nM
same,IC50,[1],355 nM
same,IC50,SW1990 [4],3.12 µM
same,IC50,MDA-MB-231,810 nM
CC[C@@H]1C(=O)N(C)c2cnc(Nc3ccc(-c4nc5c(C(N)=O)cccc5[nH]4)cc3OC(C)C)nc2N1C1CCCC1,IC50,[1],2050 nM
same,inhibition,[2],75%
CCOc1cc(-c2nc3c(C(N)=O)cccc3[nH]2)ccc1Nc1ncc2c(n1)N(C1CCCC1)[C@H](CC)C(=O)N2C,IC50,[1],306 nM
same,IC50,SW1990 [4],2.45 µM
same,IC50,MDA-MB-231,790 nM
same,inhibition,[2],86%
O=C(c1cc(Cc2n[nH]c(=O)c3ccccc23)ccc1F)N1CCN(C(=O)C2CC2)CC1 [OLAPARIB],Activity,Mus musculus [5],inactive
same,Activity,SW1990 [6],inactive
same,inhibition,SW1990 [7],inactive
same,Activity,SW1990 [8],inactive
same,inhibition,SW1990 [9],inactive
same,Activity,Mus musculus [10],inactive
same,Activity,Mus musculus [11],inactive
same,Activity,Mus musculus [12],inactive
same,Activity,Mus musculus [13],Non-Toxic
same,inhibition,[14],inactive
same,Activity,SW1990 [15],inactive
same,Activity,SW1990 [16],inactive
same,Activity,SW1990 [17],inactive
same,Activity,SW1990 [18],inactive
same,Activity,Mus musculus [19],Non-Toxic
same,IC50,SW1990 [4],5.73 µM
same,inhibition,SW1990 [20],inactive
same,Activity,Mus musculus [21],inactive
same,IC50,MDA-MB-231,8480 nM
same,Activity,SW1990 [22],inactive
same,inhibition,[23],inactive
same,Activity,Mus musculus [24],inactive
same,IC50,CFPAC-1,13.7 µM
same,Activity,Mus musculus [25],inactive
same,Activity,Mus musculus [26],inactive
same,Activity,Mus musculus [27],inactive
same,IC50,CAPAN-1,8.42 µM
same,Activity,SW1990 [28],Active
same,Activity,Mus musculus [29],Non-Toxic
same,Activity,SW1990 [30],inactive
same,inhibition,SW1990 [31],inactive
same,Activity,Mus musculus [32],Non-Toxic
same,Activity,Mus musculus [33],inactive
same,Activity,Mus musculus [34],inactive
same,Activity,Mus musculus [35],inactive
same,Activity,SW1990 [36],inactive
same,Activity,Mus musculus [37],Non-Toxic
same,Activity,Mus musculus [38],Non-Toxic
same,inhibition,SW1990 [39],inactive
